Measurements taken from patent US11753446B2, “Beta-hairpin peptidomimetics” (POLYPHOR AG, priority 2014, dated 2023).
Where a SMILES comes first, the peptide text is derived from it. Bridges are numbered along the chain shown (N, C = ends). [ ]: non-standard residue; d: D form. Ala(cPent) = N[C@@H](CC1CCCC1)C(=O)O; Tle = CC(C)(C)[C@H](N)C(=O)O; dDab = NCC[C@@H](N)C(=O)O; Orn = NCCC[C@H](N)C(=O)O; Dab = NCC[C@H](N)C(=O)O

Assays:
[1] = system: human red blood cells (hRBC); test: Hemolysis: hemolytic activity at 100 μg/mL, 1 h at 37° C.; conditions: red cells of human, 1 h
In short: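 Peptides at 100 μg/mL incubated with washed 20% (v/v) human erythrocytes (~0.9×10^9 cells/mL) for 1 h at 37 °C with shaking. Released hemoglobin read at OD 540 nm in supernatant; 0% and 100% lysis from PBS/0.001% acetic acid and 2.5% Triton X-100.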

[2] = system: Acinetobacter baumannii DSM 30008; assay type: cell-based; conditions: DSM 30008
In short: (§1)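 Peptide activity was tested by NCCLS broth microdilution with slight modifications. Bacteria were diluted in cation-adjusted Mueller-Hinton II broth to approximately 10^6 CFU/mL against a 0.5 McFarland standard. They were then exposed to two-fold serial peptide dilutions in broth containing 0.002% final polysorbate 80.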

[3] = system: Klebsiella pneumoniae ATCC 13883; assay type: cell-based; conditions: ATCC 13883
In short: as §1

[4] = system: Escherichia coli ATCC 25922; assay type: cell-based; conditions: ATCC 25922
In short: as §1

Compound	Hemolysis at 100 μg/mL ([1]; 100 μg/mL)	Acinetobacter baumannii DSM 30008 MIC [2]	Klebsiella pneumoniae ATCC 13883 MIC [3]	Escherichia coli ATCC 25922 MIC [4]	Hemolysis at 100 μg/mL [1]; 100
CC(C)C[C@@H]1NC(=O)[C@H](CCCNC(=N)N)NC(=O)[C@H]2CCCN2C(=O)[C@H](C(C)C)NC(=O)[C@@H]2CSSC[C@H](NC1=O)C(=O)N[C@@H](Cc1ccc(O)cc1)C(=O)N[C@H]1CSSC[C@H](NC(=O)[C@H](Cc3c[nH]c4ccccc34)NC(=O)[C@H](CCN)NC(=O)[C@@H](CCN)NC(=O)[C@H](CCN)NC1=O)C(=O)N[C@@H](Cc1ccc(O)cc1)C(=O)N2 [Example 43, cyclo(-Leu-Cys-Tyr-Cys-Dab-^DDab-Dab-Trp-Cys-Tyr-Cys-Val-^DPro-Arg-)] (HELM PEPTIDE1{C.[Dab].[NCC[C@@H](N[*:1])C(=O)[*:2]].[Dab].W.C.Y.C.V.[dP].R.L.C.Y}$PEPTIDE1,PEPTIDE1,1:R3-6:R3|PEPTIDE1,PEPTIDE1,8:R3-13:R3|PEPTIDE1,PEPTIDE1,1:R1-14:R2$$$V2.0)	2%	1 µg/mL	2 µg/mL	4 µg/mL	–
CC[C@H](C)[C@@H]1NC(=O)[C@@H]2CCCN2C(=O)[C@@H](CCN)NC(=O)[C@H](CO)NC(=O)[C@H](C)NC(=O)[C@H](C(C)(C)C)NC(=O)[C@H](CCN)NC(=O)[C@H](Cc2c[nH]c3ccccc23)NC(=O)[C@H](CCN)NC(=O)[C@@H](CCN)NC(=O)[C@H](CCCN)NC(=O)[C@H](CCN)NC(=O)[C@H](Cc2ccc(O)cc2)NC(=O)[C@H]([C@@H](C)O)NC1=O [Example 48, cyclo(-Ile-Thr-Tyr-Dab-Orn-^DDab-Dab-Trp-Dab-tBuGly-Ala-Ser-^DDab-Pro-)] (cyclo(AS[dDab]PITY[Dab][Orn][dDab][Dab]W[Dab][Tle]))	–	8 µg/mL	2 µg/mL	1 µg/mL	1%
CC(C)C[C@@H]1NC(=O)[C@H](CCCNC(=N)N)NC(=O)[C@@H](CCN)NC(=O)[C@H](C(C)C)NC(=O)[C@H](C)NC(=O)[C@H](C(C)C)NC(=O)[C@@H]2CSSC[C@H](NC(=O)[C@H](Cc3ccc(O)cc3)NC(=O)[C@H](CO)NC1=O)C(=O)N[C@@H](CCCN)C(=O)NCC(=O)N[C@@H](CCN)C(=O)N[C@@H](Cc1c[nH]c3ccccc13)C(=O)N2 [Example 40, cyclo(-Leu-Ser-Tyr-Cys-Orn-Gly-Dab-Trp-Cys-Val-Ala-Val-^DDab-Arg-)] (HELM PEPTIDE1{A.V.[NCC[C@@H](N[*:1])C(=O)[*:2]].R.L.S.Y.C.[Orn].G.[Dab].W.C.V}$PEPTIDE1,PEPTIDE1,8:R3-13:R3|PEPTIDE1,PEPTIDE1,1:R1-14:R2$$$V2.0)	–	4 µg/mL	2 µg/mL	4 µg/mL	4%
CC(C)C[C@@H]1NC(=O)[C@H](CCN)NC(=O)[C@@H](CCN)NC(=O)[C@H](C(C)C)NC(=O)[C@@H]2CSSC[C@H](NC1=O)C(=O)N[C@@H](Cc1ccc(O)cc1)C(=O)N[C@@H](CC(N)=O)C(=O)N[C@@H](CCCN)C(=O)N[C@H](CCN)C(=O)N[C@@H](CCN)C(=O)N[C@@H](Cc1c[nH]c3ccccc13)C(=O)N[C@@H](CC(N)=O)C(=O)N[C@@H](Cc1ccc(O)cc1)C(=O)N2 [Example 54, cyclo(-Leu-Cys-Tyr-Asn-Orn-^DDab-Dab-Trp-Asn-Tyr-Cys-Val-^DDab-Dab-)] (HELM PEPTIDE1{C.V.[NCC[C@@H](N[*:1])C(=O)[*:2]].[Dab].L.C.Y.N.[Orn].[NCC[C@@H](N[*:1])C(=O)[*:2]].[Dab].W.N.Y}$PEPTIDE1,PEPTIDE1,1:R3-6:R3|PEPTIDE1,PEPTIDE1,1:R1-14:R2$$$V2.0)	–	1.25 µg/mL	1 µg/mL	0.75 µg/mL	3%
CC[C@H](C)[C@@H]1NC(=O)[C@@H]2CCCN2C(=O)[C@@H](CCN)NC(=O)[C@H](CO)NC(=O)[C@@H]2CSSC[C@H](NC1=O)C(=O)N[C@@H](Cc1ccc(O)cc1)C(=O)N[C@@H](CCN)C(=O)N[C@@H](CCCN)C(=O)N[C@H](CCN)C(=O)N[C@@H](CCN)C(=O)N[C@@H](Cc1c[nH]c3ccccc13)C(=O)N[C@@H](CCN)C(=O)N[C@@H](C(C)(C)C)C(=O)N2 [Example 14, cyclo(-Ile-Cys-Tyr-Dab-Orn-^DDab-Dab-Trp-Dab-tBuGly-Cys-Ser-^DDab-Pro-)] (cyclo(CS[dDab]PICY[Dab][Orn][dDab][Dab]W[Dab][Tle]); disulfide 1-6)	–	1 µg/mL	1 µg/mL	0.5 µg/mL	1%
CC(C)C[C@@H]1NC(=O)[C@H](CCCNC(=N)N)NC(=O)[C@@H](CCN)NC(=O)[C@H](C(C)C)NC(=O)[C@@H]2CSSC[C@H](NC1=O)C(=O)N[C@@H](Cc1ccc(O)cc1)C(=O)N[C@@H](CC(N)=O)C(=O)N[C@@H](CCCN)C(=O)N[C@H](CCN)C(=O)N[C@@H](CCN)C(=O)N[C@@H](Cc1c[nH]c3ccccc13)C(=O)N[C@@H](CO)C(=O)N[C@@H](Cc1ccc(O)cc1)C(=O)N2 [Example 10, cyclo(-Leu-Cys-Tyr-Asn-Orn-^DDab-Dab-Trp-Ser-Tyr-Cys-Val-^DDab-Arg-)] (HELM PEPTIDE1{C.V.[NCC[C@@H](N[*:1])C(=O)[*:2]].R.L.C.Y.N.[Orn].[NCC[C@@H](N[*:1])C(=O)[*:2]].[Dab].W.S.Y}$PEPTIDE1,PEPTIDE1,1:R3-6:R3|PEPTIDE1,PEPTIDE1,1:R1-14:R2$$$V2.0)	–	0.5 µg/mL	1 µg/mL	0.5 µg/mL	1%
CC(C)[C@@H]1NC(=O)[C@@H]2CSSC[C@H](NC(=O)[C@H](CC3CCCC3)NC(=O)[C@H](CCCNC(=N)N)NC(=O)[C@@H](CCN)NC1=O)C(=O)N[C@@H](Cc1ccc(O)cc1)C(=O)N[C@@H](CC(N)=O)C(=O)N[C@@H](CCCN)C(=O)N[C@H](CCN)C(=O)N[C@@H](CCN)C(=O)N[C@@H](Cc1c[nH]c3ccccc13)C(=O)N[C@@H](CO)C(=O)N[C@@H](Cc1ccc(O)cc1)C(=O)N2 [Example 58, cyclo(-Cpa-Cys-Tyr-Asn-Orn-^DDab-Dab-Trp-Ser-Tyr-Cys-Val-^DDab-Arg-)] (cyclo([Ala(cPent)]CYN[Orn][dDab][Dab]WSYCV[dDab]R); disulfide 2-11)	–	0.625 µg/mL	0.75 µg/mL	0.5 µg/mL	3%
CC(C)C[C@@H]1NC(=O)[C@@H]2CCCN2C(=O)[C@@H](CCN)NC(=O)[C@H](CO)NC(=O)[C@H](C(C)C)NC(=O)[C@H](C(C)(C)C)NC(=O)[C@@H]2CC(=O)NCC[C@H](NC(=O)[C@H](Cc3ccc(O)cc3)NC(=O)[C@H](Cc3ccc(O)cc3)NC1=O)C(=O)N[C@@H](CCCN)C(=O)N[C@H](CCN)C(=O)N[C@@H](CCN)C(=O)N[C@@H](Cc1c[nH]c3ccccc13)C(=O)N2 [Example 41, cyclo(-Leu-Tyr-Tyr-Dab-Orn-^DDab-Dab-Trp-Asp-tBuGly-Val-Ser-^DDab-Pro-)] (cyclo(D[Tle]VS[dDab]PLYY[Dab][Orn][dDab][Dab]W); lactam 1-10)	–	2 µg/mL	1 µg/mL	2 µg/mL	2%
